Data reported in ChEMBL document CHEMBL1157539, “Thousands of chemical starting points for antimalarial lead identification” (Nature, 2010).

System: Plasmodium falciparum
Assay: GSK_TCMDC: Inhibition of Plasmodium falciparum 3D7 in whole erythrocytes, using parasite LDH activity as an index of growth.
Assay type: functional, organism-based
Settings: Plasmodium falciparum, 3D7

First: O=[N+]([O-])c1cccc(/C=N/Nc2ccnc3ccc(C(F)(F)F)cc23)c1
Second: CC(=O)N(C)c1cccc(C(=O)Nc2ccc(-c3cccc(-c4nc5cc(C(F)(F)F)ccc5[nH]4)c3)cc2)c1
The XC50 of the first is 1.5-fold higher: 1090 nM for the first, 724 nM for the second.

CC1(C)CCC(C)(C)c2c1ccc(C1CCN(CCCCNC(=O)c3ccc(-c4ccc(Cl)cc4)cc3)CC1)c2O and COc1ccccc1N1CCN(CCCCNC(=O)c2ccc(NC(=O)c3cc(Cl)cc(Cl)c3)cc2)CC1 are within 1.5-fold of each other in XC50: 477 nM for the first, 458 nM for the second.

Compared with CCCCN(CCCC)CCCCNc1c2ccc(Cl)cc2nc2ccc(OC)cc12, CCCCCCOc1ccc(N2C(N)=NC(N)=NC2(C)C)cc1 is 2-fold higher in XC50: 175 nM for the first, 344 nM for the second.

First: Cc1ccoc1C(=O)Nc1cccc(-c2cccc(-c3nc4cccc(C)c4[nH]3)c2)c1
Second: Cc1cccc2nc(-c3cccc(-c4ccc(NC(=O)COC(C)C)cc4)c3)[nH]c12
The XC50 of the first is 1.8-fold lower: 675 nM for the first, 1190 nM for the second.

First: CCCN1CCN(c2ccccc2NS(=O)(=O)c2ccc(C(=O)Nc3ccc(Cl)cc3)cc2)CC1
Second: O=C(Nc1cccc(CN2CCCN(Cc3ncc[nH]3)CC2)c1)c1ccc2ccccc2c1
The XC50 of the first is 1.8-fold higher: 1140 nM for the first, 632 nM for the second.

Going from NC1=NC(CCc2ccccc2)N(c2ccc(Cl)cc2)C(N)=N1 (stereo not drawn) to O=C(Cc1cn(-c2ccccc2)nc1-c1ccc(Cl)cc1)Nc1nccs1, the XC50 rises from 38 nM to 1200 nM (32-fold).

CN1CCC[C@H]1COc1ccc(CN2CC[C@H](NC(=O)c3ccc(Cl)c(Cl)c3)C2)cc1Cl and CS(=O)(=O)Nc1ccc2[nH]cc(C3CCN(CC4CCC(NC(=O)/C=C/c5ccc(Cl)c(Cl)c5)CC4)CC3)c2c1 (stereo not drawn) are within 1.5-fold of each other in XC50: 1150 nM for the first, 847 nM for the second.

Compared with Cc1cccc2nc(-c3cccc(-c4ccc(NC(=O)Nc5ccc(Cl)c(Cl)c5)cc4)c3)[nH]c12, Cc1noc(C)c1-c1cccc(CNCc2ccc(-c3ccc(-c4nc5cc(C(F)(F)F)ccc5[nH]4)cc3)cc2)c1 is 3.3-fold lower in XC50: 566 nM for the first, 172 nM for the second.

Compared with Cn1cncc1-c1ccc2ncnc(Nc3ccc(OCc4ccccc4)cc3)c2c1, COc1ccc(CNC(=O)c2cc3c(=O)n4ccccc4nc3n(CCc3ccccc3)c2=N)cc1 is 4.1-fold lower in XC50: 1340 nM for the first, 330 nM for the second.

CN1CCC(N(C)c2nccc(N3CCN(Cc4cncn4Cc4ccccc4)CC3)n2)CC1 and CC(C)CNCc1ccc(-c2ccc(CN(C(=O)Nc3ccccc3)C3CCN(Cc4ccccc4)CC3)cc2)cc1 are within 1.5-fold of each other in XC50: 704 nM for the first, 680 nM for the second.

CCOc1cc(NCCSCc2nc[nH]c2C)nc2ccccc12 and CCOC(=O)c1nc(-c2ccccc2)[nH]c1-n1nc(C)cc1C are within 1.5-fold of each other in XC50: 792 nM for the first, 686 nM for the second.

CCc1c(CCNCCCCCCNCCc2ccc([N+](=O)[O-])cc2)ccc(O)c1O and O=C(Cc1ccccc1)NC(Nc1ccc([N+](=O)[O-])cc1)C(Cl)(Cl)Cl (stereo not drawn) are within 1.5-fold of each other in XC50: 783 nM for the first, 973 nM for the second.

Cc1cc(N[C@@H](CC(C)C)C(=O)NCCc2ccccc2)nc(NCC2CCCCC2)n1 and CCc1c(C)nc(-n2nc(C)cc2NC(=O)C2c3ccccc3Oc3ccccc32)[nH]c1=O are within 1.5-fold of each other in XC50: 904 nM for the first, 952 nM for the second.

FC(F)(F)c1ccc2[nH]c(-c3ccc(-c4cccc(CNCCN5CCNCC5)c4)cc3)nc2c1 and Fc1ccc2[nH]c(-c3ccc(-c4ccc(CNCCN5CCNCC5)cc4)s3)nc2c1 are within 1.5-fold of each other in XC50: 1030 nM for the first, 779 nM for the second.

CCN(CC)CCN1C(=O)C(O)(c2ccccc2Cl)c2c1cc(C(N)=O)cc2C(F)(F)F (stereo not drawn) and CCCCCC(=O)N1CCOC(CCN2CCc3c(c4ccccc4n3C)C2)(c2ccc(Cl)c(Cl)c2)C1 (stereo not drawn) are within 1.5-fold of each other in XC50: 703 nM for the first, 982 nM for the second.

First: CCC(C)CC(=O)Nc1ccc(OC)c(S(=O)(=O)N[C@@H]2CCN(C#N)C2)c1 (stereo partly drawn)
Second: O=C(c1cc(-c2ccco2)n[nH]1)N1CCN(S(=O)(=O)c2ccc(Cl)cc2)CC1
The XC50 of the first is 4.2-fold higher: 1490 nM for the first, 356 nM for the second.

COc1cc(-c2cc(-c3ccc(OCCN(C)C)cc3)[nH]c2-c2ccncc2)ccc1Cl and CS(=O)(=O)NCCCNCc1ccc(-c2ccc(-c3nc4cc(F)ccc4[nH]3)cc2)cc1 are within 1.5-fold of each other in XC50: 711 nM for the first, 935 nM for the second.

CCOC(C(=O)OCC1CCCN1C)(c1ccccc1)c1ccccc1 (stereo not drawn) and Cc1nnc(-c2ccc3ccccc3c2)c2cn(-c3cccc([N+](=O)[O-])c3)nc12 are within 1.5-fold of each other in XC50: 863 nM for the first, 988 nM for the second.

CC(C)(C)NCCN(Cc1ccc(-c2ccc(C(F)(F)F)cc2)cc1)C(=O)Cn1c(CCc2cccc(F)c2F)nc(=O)c2ccccc21 and Cc1ccc2ccncc2c1N are within 1.5-fold of each other in XC50: 764 nM for the first, 697 nM for the second.
